US10632125B2, “MTH1 inhibitors for treatment of inflammatory and autoimmune conditions” (THOMAS HELLEDAYS STIFTELSE FÖR MEDICINSK FORSKNING, priority 2014, dated 2020)

target: MTH1 (Homo sapiens, UniProt P36639); assay: MTH1 enzymatic assay (malachite green, coupled to pyrophosphatase); format: biochemical; settings: dGTP 100 μM, MTH1 6 nM; 96- or 384-well format; read-out: IC50

IC50, < 0.2 µM:
Cc1cc(-c2cc(NCCc3ccc(Cl)cc3)nc(N)n2)c(C)cc1F [Example 223, 4-N-[2-(4-chlorophenyl)ethyl]-6-(4-fluoro-2,5-dimethylphenyl)pyrimidine-2,4-diamine]
Cc1ccc(C)c(-c2cc(NCCc3ccc(Cl)cc3)nc(N)n2)c1 [Example 224, 4-N-[2-(4-chlorophenyl)ethyl]-6-(2,5-dimethylphenyl)pyrimidine-2,4-diamine]
CNc1cc(-c2ccc(/C=C/C(=O)O)cc2)nc(N)n1 [Example 233, (2E)-3-{4-[2-amino-6-(methylamino)pyrimidin-4-yl]phenyl}prop-2-enoic acid]
Cc1cccc(-c2cc(NCC3CN(C(=O)OC(C)(C)C)C3)nc(N)n2)c1C [Example 234, tert-butyl 3-({[2-amino-6-(2,3-dimethylphenyl)pyrimidin-4-yl]amino}methyl)-azetidine-1-carboxylate]
Nc1nc(NC2CC2)cc(-c2ccc3[nH]ccc3c2)n1 [Example 235, 4-N-cyclopropyl-6-(1H-indol-5-yl)pyrimidine-2,4-diamine]
Cc1cccc(-c2cc(NCC(C)(C)CNC(=O)OC(C)(C)C)nc(N)n2)c1C [Example 239, tert-Butyl (3-((2-amino-6-(2,3-dimethylphenyl)pyrimidin-4-yl)amino)-2,2-dimethyl-propyl)carbamate]
CNc1cc(-c2cc(Cl)c(OC)cc2C)nc(N)n1 [Example 240, 6-(5-chloro-4-methoxy-2-methylphenyl)-4-N-methylpyrimidine-2,4-diamine]
Cc1c(Cl)cccc1-c1cc(NC(C)Cc2c[nH]c3ccccc23)nc(N)n1 (stereo not drawn) [Example 243, 6-(3-chloro-2-methylphenyl)-4-N-[1-(1H-indol-3-yl)propan-2-yl]pyrimidine-2,4-diamine]
Cc1cccc(-c2cc(NCCOc3ccccc3Cl)nc(N)n2)c1C [Example 247, 4-N-[2-(2-chlorophenoxy)ethyl]-6-(2,3-dimethylphenyl)pyrimidine-2,4-diamine]
Cc1cccc(-c2cc(NCCc3nc4cc(Cl)ccc4[nH]3)nc(N)n2)c1C [Example 248, 4-N-[2-(5-chloro-1H-1,3-benzodiazol-2-yl)ethyl]-6-(2,3-dimethylphenyl)pyrimidine-2,4-diamine]
Cc1cccc(-c2cc(NCC(C)Oc3cccnc3)nc(N)n2)c1C (stereo not drawn) [Example 250, 6-(2,3-dimethylphenyl)-4-N-[2-(pyridin-3-yloxy)propyl]pyrimidine-2,4-diamine]
Cc1cccc(-c2cc(NCc3ccc4[nH]ncc4c3)nc(N)n2)c1C [Example 251, 6-(2,3-dimethylphenyl)-4-N-(1H-indazol-5-ylmethyl)pyrimidine-2,4-diamine]
COc1cc(CNc2cc(-c3cccc(C)c3C)nc(N)n2)ccn1 [Example 253, 6-(2,3-dimethylphenyl)-4-N-[(2-methoxypyridin-4-yl)methyl]pyrimidine-2,4-diamine]
CNc1cc(-c2cccc(C#N)c2C)nc(N)n1 [Example 258, 3-[2-amino-6-(methylamino)pyrimidin-4-yl]-2-methylbenzonitrile]
CNc1cc(-c2cccc3c2OCC3)nc(N)n1 [Example 261, 6-(2,3-dihydro-1-benzofuran-7-yl)-4-N-methylpyrimidine-2,4-diamine]
CNc1cc(-c2cc(S(=O)(=O)N3CCOCC3)ccc2C)nc(N)n1 [Example 262, 4-N-methyl-6-[2-methyl-5-(morpholine-4-sulfonyl)phenyl]pyrimidine-2,4-diamine]
Nc1nc(NCCc2ccc(Cl)cc2)cc(-c2cccc(Cl)c2Cl)n1 [Example 263, 4-N-[2-(4-chlorophenyl)ethyl]-6-(2,3-dichlorophenyl)pyrimidine-2,4-diamine]
Cc1cccc(-c2cc(NCCc3cccnc3)nc(N)n2)c1C [Example 268, 6-(2,3-dimethylphenyl)-4-N-[2-(pyridin-3-yl)ethyl]pyrimidine-2,4-diamine]
Cc1cccc(-c2cc(NCCNC(=O)OC(C)(C)C)nc(N)n2)c1C [Example 271, tert-butyl N-(2-{[2-amino-6-(2,3-dimethylphenyl)pyrimidin-4-yl]amino}ethyl)-carbamate]
Cc1cccc(-c2cc(NCCN(C)C(=O)OC(C)(C)C)nc(N)n2)c1C [Example 274, tert-butyl N-(2-{[2-amino-6-(2,3-dimethylphenyl)pyrimidin-4-yl]amino}ethyl)-N-methylcarbamate]
Cc1cccc(-c2cc(NCc3ccc(S(C)(=O)=O)cc3)nc(N)n2)c1C [Example 279, 6-(2,3-dimethylphenyl)-4-N-[(4-methanesulfonylphenyl)methyl]pyrimidine-2,4-diamine]
Cc1cccc(-c2cc(NCc3ccc(N4CCN(C)CC4)cc3)nc(N)n2)c1C [Example 280, 6-(2,3-dimethylphenyl)-4-N-{[4-(4-methylpiperazin-1-yl)phenyl]methyl}pyrimidine-2,4-diamine]
Cc1cccc(-c2cc(NCC3CCN(C(=O)OC(C)(C)C)CC3)nc(N)n2)c1C [Example 283, tert-butyl 4-({[2-amino-6-(2,3-dimethylphenyl)pyrimidin-4-yl]amino}methyl)-piperidine-1-carboxylate]
CC(=O)NCCCCNc1cc(-c2cccc(Cl)c2Cl)nc(N)n1 [Example 303, N-(4-{[2-Amino-6-(2,3-dichlorophenyl)pyrimidin-4-yl]amino}butyl)acetamide]
Nc1nc(NCc2ccc(-c3csnn3)cc2)cc(-c2cccc(Cl)c2Cl)n1 [Example 305, 6-(2,3-Dichlorophenyl)-4-N-{[4-(1,2,3-thiadiazol-4-yl)phenyl]methyl}pyrimidine-2,4-diamine]
C=CC(=O)Nc1cccc(-c2cc(NC)nc(N)n2)c1 [Example 309, N-{3-[2-Amino-6-(methylamino)pyrimidin-4-yl]phenyl}prop-2-enamide]
CNc1cc(-c2cccc(NC(=O)/C=C/c3ccccc3)c2)nc(N)n1 [Example 310, (2E)-N-{3-[2-Amino-6-(methylamino)pyrimidin-4-yl]phenyl}-3-phenylprop-2-enamide]
C=CC(=O)Nc1cccc(-c2cc(NC)nc(N)n2)c1C [Example 311, N-{3-[2-Amino-6-(methylamino)pyrimidin-4-yl]-2-methylphenyl}prop-2-enamide]
C#CC(=O)Nc1cccc(-c2cc(NC)nc(N)n2)c1 [Example 314, N-{3-[2-Amino-6-(methylamino)pyrimidin-4-yl]phenyl}prop-2-ynamide]
CNc1cc(-c2cccc(NC(=O)c3cc(Cl)ccc3O)c2)nc(N)n1 [Example 321, N-{3-[2-Amino-6-(methylamino)pyrimidin-4-yl]phenyl}-5-chloro-2-hydroxybenzamide]
